In publication PMC11879692, “PDE4 inhibitor rolipram represses hedgehog signaling via ubiquitin-mediated proteolysis of GLI transcription factors to regress breast cancer” (The Journal of Biological Chemistry, 2025):

Assays:
[1] = test system: GLI2 and GLI3 in MCF-7 cells; assay: Ubiquitination of GLI2 and GLI3 (HA-Ub transfection, immunoprecipitation, anti-HA blot); type: cell-based, human
Experimental: (§1) HA-Ubiquitin plasmid (Addgene; catalog no.: plasmid #18712, RRID: Addgene_18712) was transfected into MCF-7 and MDA-MB-231 cells using X-tremeGENE HP DNA Transfection Reagent (Roche; catalog no.: XTGHP-RO). Proteins were extracted from the untreated control cells and cells treated with rolipram for 24 h and were immunoprecipitated using antibodies raised against GLI2 and GLI3. The immunoprecipitation involved overnight incubation of protein and antibodies in Pierce Protein A/G Agarose (Thermo Scientific; catalog no.: 20421) at 4°C. Following immunoprecipitation, the precipitate was subjected to Western blot analysis using anti-HA antibodies (Cell Signaling Technology; catalog no.: 2367; RRID: AB_10691311) to observe ubiquitination of the desired proteins. Cells were cotreated with MG-132 (Sigma–Aldrich; catalog no.: M7449), a proteosomal blocker for ascertaining ubiquitination ([35]).

[2] = test system: GLI2 and GLI3 in MDA-MB-231 cells; assay: as above; type: cell-based, human
Experimental: as §1

[3] = test system: PKA; assay: Immunohistochemistry of tumor tissue, PKA; type: in vivo, BALB/c mice
Experimental: (§2) Solid tumors were developed in BALB/c mice (n = 3) except the control group (group I) by injecting 1 × 10^4 viable 4T1 (RRID: CVCL_0125) mice breast carcinoma cells (resuspended in 50 μl of PBS) into the inguinal fourth mammary fat pad, and the tumor was allowed to develop for 14 days ([37], [38]). Mice were randomly divided into three groups, viz., untreated tumor (group II), mice treated intraperitoneally with 1 mg//kg bodyweight of rolipram (group III), and mice receiving 5 mg/kg bodyweight of rolipram, intraperitoneally (group IV) ([39], [40]). After 14 days, the mice were sacrificed. Lung, kidney, liver, serum, and the tumors were collected for further experiments ([15]).
Mice mammary fat pad and mammary tumor tissues were processed as for histology, and 5 μm-thick sections were mounted on glass slides. The tissue sections were deparaffinized with xylene and hydrated with […] grades of alcohols (100% to 70%). Rehydrated sections were equilibrated in PBS. Antigen retrieval was performed by boiling the sections in a 0.1 M sodium citrate buffer (pH 6.0) for 10 min. […] The frequency (cell count) of positive and negative cells as well as the mean absorbance of the positive cells were plotted using MatPlotLib (RRID: SCR_008624), a Python (RRID: SCR_008394) 2D plotting library.

[4] = Histological analysis of liver of tumor-bearing mice; type: in vivo, BALB/c mice; settings: rolipram-treated tumor-bearing mice; dilation observed in untreated tumor-bearing mice
Experimental: as §2
Tissue samples of mammary tissue, lung, kidney, and liver from each group of mice were fixed in Bouin’s solution (Sigma–Aldrich; catalog no.: HT10132), dehydrated in graded alcohol, and embedded in paraffin wax. Thin sections (5 μm) of tissues were mounted on glass slides and stained with hematoxylin (Sigma–Aldrich; catalog no.: H3136), following rehydration with graded alcohol. The samples were again dehydrated with graded alcohol and stained with eosin and mounted with Dystyrene Plasticizer Xylene ([42]). […] For quantifying the number of cells in a unit area of histological section of lung, each section image was divided into 12 equal parts (dimensions: 480 px × 400 px). […]

Compound: COc1ccc(C2CNC(=O)C2)cc1OC1CCCC1 (stereo not shown) [rolipram, Rolipram]
- ubiquitination of GLI2 and GLI3 ([1]; MCF-7, IC50 dose, 6 h to 24 h): significant ubiquitination
- ubiquitination of GLI2 and GLI3 ([1]; MCF-7, in the presence of H89): not able to induce ubiquitination
- ubiquitination of GLI2 and GLI3 ([2]; MDA-MB-231, IC50 dose): ubiquitination of both proteins was also observed
- ubiquitination of GLI2 and GLI3 ([2]; MDA-MB-231, in the presence of H89): not able to induce ubiquitination
- increase of PKA-positive cells compared with tumor tissues ([3]; 1 mg/kg bodyweight): ~1.5 fold
- increase of PKA-positive cells compared with tumor tissues ([3]; 5 mg/kg bodyweight): ~1.5 fold
- hepatic vein dilation [4]: not evident
